# Laboratory results: article PMC7356761 (Molecules, 2020)
# Entries after “also recorded” stand apart in the source; their conditions may differ.
# Assays:
# [1] = Partition coefficient, shake-flask n-octanol/phosphate buffer; assay type: physicochemical; conditions: n-octanol/0.1 M phosphate buffer pH 7.4, shake-flask
# Procedure: 3.6. Determination of Partition Coefficient
# The partition coefficient of [^125I]10 was measured, as previously reported with a slight modification. Briefly, [^125I]10 was added to the mixture of each 3 mL of n-octanol and 0.1 M phosphate buffer (pH 7.4) in a test tube. The test tube was vortexed for 1 min, left at room temperature for 10 min and centrifuged at 3000× g and 4 °C for 5 min. The n-octanol layer (2 mL) was transferred into a new test tube followed by adding 1 mL of new n-octanol and 3 mL of phosphate buffer. The radioactivity of each 1 mL layer, n-octanol and phosphate buffer was measured using an auto well gamma counter (n = 4). The log P value was calculated by the logarithm of the ratio of radioactivity per milliliter (cpm/mL) in n-octanol to that in phosphate buffer and represents mean ± SD.
# [2] = In vitro stability in murine plasma; assay type: in vitro ADME, mouse; conditions: 37 °C
# Procedure: (§1) 3.7. In Vitro Stability Experiments
# The plasma was prepared by centrifugation of murine blood at 4 °C for 20 min at […]. The reaction was started by the addition of [^125I]10 (20 μL) in the plasma (180 µL). The mixture was incubated in a shaker at 300 rpm at 37 °C, which was carried out three times. Samples (100 µL) were taken at 0, 1 and 24 h and 100 µL acetonitrile, divided into five portions, was added for deproteinization of the plasma. The samples were left in the fridge for 15 min and then centrifuged at 4 °C for 15 min at […]. The supernatant was filtered through a pore size of 0.45 μm, then analyzed by RP-HPLC with a mobile phase gradient system water (A) and methanol (B), B: 70–100%, for 20 min using a Cosmosil® 5C18 MSII (4.6 ID × 150 mm) column at a flow rate of 1 mL/min. The column temperature was maintained at 40 °C. Radioactivity was measured by an auto well gamma counter.
# [3] = In vitro stability in PBS; assay type: physicochemical; conditions: 0.1 M PBS pH 7.4, 37 °C
# Procedure: as §1
# The in vitro stability of [^125I]10 was examined in phosphate buffered saline (PBS) and mouse plasma. Briefly, [^125I]10 solution (50 µL) in a sealed tube containing 0.1 M PBS pH 7.4 (450 µL) was incubated at 37 °C for 1 and 24 h. After incubation, the purities of radiotracers were analyzed by RP-HPLC with mobile phase system water (A) and methanol (B), B: 70–100%, 20 min using a Cosmosil® 5C18 MSII (4.6 ID × 150 mm) column, a flow rate 1 mL/min. The column temperature was kept at 40 °C.
# [4] = test system: H3255 tumor; experiment: Biodistribution in tumor-bearing mice, H3255 tumor; assay type: in vivo, mouse
# Procedure: Male ddY mice (27–30 g, 6 weeks old) and female BALB/c nu/nu mice (12–17 g, 4 weeks old) were purchased from Japan SLC Inc. (Hamamatsu, Japan). The mice were housed in a cage with free access to food and water maintained at a constant temperature (23–25 °C) with a 12 h light/dark cycle. […] The tumor reached palpable size 2- and 3-weeks post-inoculation. Animal experiments were conducted in accordance with laboratory guidelines for the care and use of animals of Kanazawa University. The animal handling protocol was approved by the Kanazawa University Animal Care Committee (approval number: AP-163766). 3.10. Biodistribution Studies Mice were injected intravenously via the lateral tail vein with a saline solution of [^125I]10 (25 kBq, 100 μL) containing 1% tween-80 and 10% ethanol. The ddY mice were sacrificed at 10 min, 1, 4 and 24 h; meanwhile, the tumor-bearing mice were sacrificed at 1 and 4 h post injection. The selected tissues and organs were collected and weighed and their radioactivity was measured using an auto well gamma counter. […] The mice were sacrificed 1 h after the administration of radiotracer. The biodistribution data are expressed as percent injected dose per gram of tissue (% ID/g) along with the SD.
# [5] = test system: H3255 cells (L858R active mutant EGFR); experiment: Cellular uptake study, H3255; assay type: cell-based, human
# Procedure: (§2) 3.8. Cellular Uptake Studies
# (§3) Then, the cell culture was incubated in a serum-free medium containing [^125I]10 (3.7 kBq/well) for 4 h. The medium from each well was removed and the cells were washed with 1 mL of ice-cold PBS. Finally, all cell fractions were lysed twice with 0.5 mL of 1 M NaOH aqueous solution. The radioactivity of every fraction was determined by an auto well gamma counter. Total cell protein was determined using the Bicinchoninic Acid (BCA) Protein Assay Kit (Nacalai) protocol, which uses bovine serum albumin as a standard reference. […]. All data were expressed as percent dose per milligram of protein (% dose/mg protein) ± SD.
# [6] = test system: H1975 cells (L858R/T790M active mutant EGFR); experiment: Cellular uptake study, H1975; assay type: cell-based, human
# Procedure: as §2, §3
smiles,measurement,setting,value
C=CC(=O)Nc1cc([125I])cc(Nc2nc(Nc3ccc(N4CCN(C(C)=O)CC4)cc3OC)ncc2C(F)(F)F)c1 [[^125I]10],logP,[1],1.84 ± 0.01
same,stability in plasma,[2]; 24 h incubation,purity decreased gradually
same,stability in plasma,[2]; until 1 h,slightly decomposed; also recorded: hardly decomposed
same,stability in PBS,[3]; 24 h incubation,purity decreased gradually
same,stability in PBS,[3]; until 1 h,slightly decomposed
same,"Biodistribution, H3255 tumor","[4]; Blocking (1 h), CO-1686 30 mg/kg i.p. 1 h prior",1.47 (0.71) % ID/g tissue
same,"Biodistribution, H3255 tumor","[4]; i.v., 1 h",1.63 (0.23) % ID/g tissue
same,"Biodistribution, H3255 tumor","[4]; i.v., 1 h, listed as [^125I]ICO1686",1.63 ± 0.23 % ID/g tissue
same,"Biodistribution, H3255 tumor","[4]; i.v., 4 h",0.70 (0.13) % ID/g tissue
same,cell uptake,"[5]; H3255, 4 h incubation",33.52 % dose/mg protein
same,reduction of accumulation by gefitinib,"[5]; H3255, gefitinib 100 µM",over 50%
same,cell uptake,"[6]; H1975, 4 h incubation",101.52 % dose/mg protein
same,cell uptake with blocking,"[6]; H1975, excess CO-1686 (100 µM)",45.61 % dose/mg protein
same,effect of gefitinib blocking on accumulation,"[6]; H1975, gefitinib 100 µM",did not reduce
